Test results taken from US8614301B2, “Methods of treating cancer using anti CD24 antibodies” (priority 2007, dated 2013).
Residues, ends and D or L forms follow the SMILES beside them. *: point of attachment. Cbz = O=C(OCc1ccccc1)*

B1: SWA11 anti-CD24 monoclonal antibody (antibody, human IgG1, kappa, V domains shown)
V domain 1: SDVHLQESGPDLVKPSQSLSLTCTVTGYSITSGYTWHWIRQFPGNTVEWMGYIQYTGSTRYNPALRGRLSISRDTSKNQFFLQLISVTTADTGTYFCARGTTASFDYWGQGTTLTVAS
V domain 2: DIVMSQSPSSLNVSVGEKVTMRCRSSQSLLYSSDQKNYLTWYQQKPGQSPKLLISWASTRASGVPDRFTGSGSGTDFTLTISSVKAEDLGVYYCQQYFIYPLTFGVGTKLGLKR

Assays:
[1] = tested on: HT29 cells; assay: Combined anti-CD24 mAb and chemotherapy, methylene-blue viability assay; assay type: cell-based, human; conditions: simultaneous SWA11, 72 hours
Method: Experiments were performed in duplicates or repeated twice. The Y axes stand for cell viability quantified via methylene-blue assay.
The killing effect of the anti-CD24 antibodies and the chemotherapies was assessed, in-vitro, using a methylene-blue assay: 2.5×10^3 cells/well were plated onto 96-well in 0.2 ml complete medium. On the morrow the media were refreshed with the addition of the indicated reagents, held in incubation for 72 hours. The cells were washed with PBS and then fixed with a 0.2 mL 4% formaldehyde solution for 2 hours at room temperature. The cells were then washed with PBS, incubated with 0.15 mL ribonuclease A (3 μg/mL) for 30 minutes at room temperature, equilibrated with 0.2 mL sodium borate (0.1M, pH 8.5), and stained with 0.2 mL methylene blue (0.5%) for 10 minutes at room temperature. Finally, the cells were thoroughly washed with tap water and cell-bound dye was eluted with 0.2 mL HCl (0.1M). Color intensity was read in an enzyme-linked immunosorbent assay plate reader at 595 nm. SWA11 served as the anti-CD24 antibody.

[2] = biological target: T1, CD24 in HT29 cells (Homo sapiens, UniProt P25063); assay: Western blot of CD24 degradation in mAb-treated cells; assay type: cell-based; conditions: up to 6 hours
T1 construct: endogenous in cells; host or cells: HT29 human colorectal cancer cells (ATCC)
T1 sequence (P25063 27-59 limits assumed): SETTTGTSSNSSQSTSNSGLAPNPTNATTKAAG
Method: FIGS. 5A and 5B are photos showing immunodetection on Western blot of CD24 degradation in anti-CD24 mAb treated cancer cells. HT29 (FIG. 5A) and Colo357 (FIG. 5B) cells were exposed to monoclonal anti-CD24 antibody SWA11 for the indicated periods of time, cells harvested and protein extracted. 20 μg of cell proteins from each sample were separated by SDS-PAGE, blotted onto membrane and reacted with anti-CD24 (SWA11 mAb, CD24) or polyclonal anti-actin (1-19, Santa Cruz Biotechnology, Santa Cruz Calif.). Visualization was effected by anti-mouse and anti-goat (respectively) second antibodies. Note the degradation of CD24 apparent already at 2 hours treatment in both cell lines, with no effect on actin levels;
FIG. 6 is a photo showing the lysosomal mediation of CD24 degradation in HT29 cancer cells treated with anti-CD24 mAb. […]
Exponentially growing cells were harvested and protein concentrations were determined using the Bio-Rad protein assay kit (Bio-Rad, Hercules, Calif.). […]
In order to assess whether CD24 proteolysis is involved in the inhibition of CD24-expressing cancer cell growth by anti-CD24 antibodies, protein levels of CD24 and housekeeping gene product actin in mAb-treated and control cells were analyzed by SDS-PAGE and Western blotting with specific antibodies.

[3] = biological target: T2, human CD24 polypeptide (human) (UniProt P25063); assay: cell-based or functional assay
T2 sequence (looked up): T1 sequence (P25063 27-59 limits assumed)

[4] = biological target: T2, human CD24 polypeptide (human); assay: cell-based or functional assay; remark: listed apart in the source

Molecule | cytotoxic effect of chemotherapeutic agent when combined with SWA11 [1] | also measured
COc1cccc2c1C(=O)c1c(O)c3c(c(O)c1C2=O)C[C@@](O)(C(=O)CO)C[C@@H]3O[C@H]1C[C@H](N)[C@H](O)[C@H](C)O1 [Doxorubicin] | enhanced the cytotoxic effect | –
O=C1[O][Pt]2([NH][C@@H]3CCCC[C@H]3[NH]2)[O]C1=O [Oxaloplatin] | enhanced the cytotoxic effect | –
O=c1[nH]cc(F)c(=O)[nH]1 [5-florouracil] | enhanced the cytotoxic effect | –
CCN(CC)CCCC(C)Nc1ccnc2cc(Cl)ccc12 (centres unmarked) [chloroquine] | – | effect on anti-CD24 mAb induced decrease in CD24 protein level ([2]; 0.5 mM, lysosomal inhibitor, added 2 hours before mAb): prevented the decrease in CD24 protein level
CC(C)C[C@@H](C=O)NC(=O)[C@H](CC(C)C)NC(=O)[C@H](CC(C)C)NC(=O)OCc1ccccc1 [MG132] (Cbz-Leu-Leu-Leu-aldehyde) | – | effect on anti-CD24 mAb induced CD24 degradation ([2]; 0.1 mM, proteasomal inhibitor, added prior to mAb): had no effect
SWA11-ZZ-PE38 immunoconjugate | – | cytotoxity (LD50) [3]: 32 ng/mL
CC(=O)O[C@H]1C(=O)[C@@]2(C)[C@H]([C@H](OC(=O)c3ccccc3)[C@]3(O)C[C@H](OC(=O)[C@H](O)[C@@H](NC(=O)c4ccccc4)c4ccccc4)C(C)=C1C3(C)C)[C@]1(OC(C)=O)CO[C@@H]1C[C@@H]2O [Paclitaxel] | enhanced the cytotoxic effect | –
B1 | – | growth inhibition (cell viability, methylene blue) [4]: < 90%
